The target of one test is T1, CDK4/Cyclin D1 (Homo sapiens, UniProt P11802).
T1 construct: CDK4 amino acids 1–303; made in house; host or cells: Sf21 (Spodoptera frugiperda) insect cells, baculovirus co-infection, vector pVL1393
Put plainly: CDK inhibition assay (Scintillation Proximity Assay, GST-Retinoblastoma substrate). It is filed as biochemical. To be noted: in-vitro SPA kinase assay, CDK4/Cyclin D1, GST-Rb substrate; read-out: CDK4 inhibitory activity IC50. How it is done:
The compounds were tested in an in vitro kinase assay in 96 well format using Scintillation Proximity Assay (SPA—obtained from Amersham) for measuring incorporation of [γ-33-P]-Adenosine Triphosphate into a test substrate (GST-Retinoblastoma). In each well was placed the compound to be tested (diluted in DMSO and water to correct concentrations) and in control wells either p16 as an inhibitor control or DMSO as a positive control.
Approximately 0.5 μl of CDK4/Cyclin D1 partially-purified enzyme (amount dependent on enzyme activity) diluted in 25 μl incubation buffer was added to each well then 20 μl of GST-Rb/ATP/ATP33 mixture (containing 0.5 μg GST-Rb and 0.2 μM ATP and 0.14 μCi [γ-33-P]-Adenosine Triphosphate), and the resulting mixture shaken gently, then incubated at room temperature for 60 minutes.
To each well was then added 150 μL stop solution containing (0.8 mg/well of Protein A-PVT SPA bead (Amersham)), 20 pM/well of Anti-Glutathione Transferase, Rabbit IgG (obtained from Molecular Probes), 61 mM EDTA and 50 mM HEPES pH 7.5 containing 0.05% sodium azide.
The plates were sealed with Topseal-S plate sealers, left for two hours then spun at 2500 rpm, 1124×g., for 5 minutes. The plates were read on a Topcount for 30 seconds per well. […]

Test [1] addresses T2, human Focal Adhesion Kinase (FAK) (Homo sapiens, UniProt Q05397).
T2 construct: FAK (full length human cDNA described by Andre et al); made in house; host or cells: Sf21 (Spodoptera frugiperda) insect cells, baculovirus (pFastbac 1)
In words: FAK3 kinase inhibition assay (in vitro enzyme ELISA). It counts as biochemical. Particulars: Poly (Glu, Ala, Tyr) substrate, read-out: FAK inhibitory activity IC50. How it is done:
A stock of substrate solution was prepared from a random copolymer containing tyrosine, for example Poly (Glu, Ala, Tyr) 6:3:1 (Sigma P3899), stored as 1 mg/ml stock in PBS at −20° C. and diluted 1 in 500 with PBS for plate coating.
The liquid was then discarded and the wells were washed twice with PBST.

T1 sequence (P11802 whole entry, the tested form may be a part): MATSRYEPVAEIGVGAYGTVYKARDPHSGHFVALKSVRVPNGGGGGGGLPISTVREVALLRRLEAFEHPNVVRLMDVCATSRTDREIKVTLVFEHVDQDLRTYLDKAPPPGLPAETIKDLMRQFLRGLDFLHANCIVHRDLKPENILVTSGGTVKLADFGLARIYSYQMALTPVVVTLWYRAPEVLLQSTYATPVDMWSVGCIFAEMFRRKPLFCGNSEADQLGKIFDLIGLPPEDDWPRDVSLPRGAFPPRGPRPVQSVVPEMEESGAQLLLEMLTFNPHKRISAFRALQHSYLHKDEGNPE
T1 sequence (P24385 whole entry partner, the tested form may be a part): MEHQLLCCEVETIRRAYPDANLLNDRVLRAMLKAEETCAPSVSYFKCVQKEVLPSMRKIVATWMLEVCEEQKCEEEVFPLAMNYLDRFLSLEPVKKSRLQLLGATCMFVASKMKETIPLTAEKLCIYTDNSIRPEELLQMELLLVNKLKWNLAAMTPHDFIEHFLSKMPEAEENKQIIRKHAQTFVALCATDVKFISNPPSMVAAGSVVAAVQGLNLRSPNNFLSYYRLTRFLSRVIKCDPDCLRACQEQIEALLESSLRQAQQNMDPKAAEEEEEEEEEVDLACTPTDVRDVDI
T2 sequence (Q05397 whole entry): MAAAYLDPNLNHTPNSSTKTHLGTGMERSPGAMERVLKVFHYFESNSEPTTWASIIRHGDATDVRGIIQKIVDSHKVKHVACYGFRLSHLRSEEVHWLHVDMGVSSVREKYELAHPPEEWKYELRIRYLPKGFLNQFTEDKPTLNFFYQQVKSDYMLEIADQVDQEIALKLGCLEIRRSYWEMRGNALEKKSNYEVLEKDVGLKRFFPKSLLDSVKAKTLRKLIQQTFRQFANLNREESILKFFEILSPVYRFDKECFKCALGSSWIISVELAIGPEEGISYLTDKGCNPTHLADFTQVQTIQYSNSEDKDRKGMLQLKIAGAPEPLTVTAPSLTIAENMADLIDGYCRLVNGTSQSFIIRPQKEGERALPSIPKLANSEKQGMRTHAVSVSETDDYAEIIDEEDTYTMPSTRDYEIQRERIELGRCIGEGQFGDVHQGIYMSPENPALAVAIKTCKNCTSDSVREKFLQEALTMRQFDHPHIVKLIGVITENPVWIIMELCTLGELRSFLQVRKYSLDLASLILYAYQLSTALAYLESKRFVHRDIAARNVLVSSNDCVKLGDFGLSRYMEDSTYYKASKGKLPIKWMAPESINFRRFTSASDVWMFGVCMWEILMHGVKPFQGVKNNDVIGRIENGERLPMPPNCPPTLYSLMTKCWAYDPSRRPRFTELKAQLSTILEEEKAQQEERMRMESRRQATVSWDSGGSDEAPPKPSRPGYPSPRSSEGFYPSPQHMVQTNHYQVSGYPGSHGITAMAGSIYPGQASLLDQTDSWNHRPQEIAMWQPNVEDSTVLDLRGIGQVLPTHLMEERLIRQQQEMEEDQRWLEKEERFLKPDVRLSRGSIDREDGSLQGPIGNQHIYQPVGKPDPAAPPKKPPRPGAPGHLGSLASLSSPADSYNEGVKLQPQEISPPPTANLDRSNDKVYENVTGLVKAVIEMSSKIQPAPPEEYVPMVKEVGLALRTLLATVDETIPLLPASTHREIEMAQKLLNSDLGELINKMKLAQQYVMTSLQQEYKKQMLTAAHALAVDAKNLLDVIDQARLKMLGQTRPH

In the case of `Cc1ccc(Nc2ccnc(Nc3ccc(OCC(O)CN(C)C)cc3)n2)c(Br)c1` (stereo not drawn) [Example 3, 2-{4-[3-(N,N-Dimethyl)amino-2-hydroxy-propoxy]anilino}-4-(2-bromo-4-methylanilino)pyrimidine], the IC50 on CDK4/Cyclin D1 came out at 0.6 µM; in test [1], 3.3 µM.

`CN(C)CC(O)COc1ccc(Nc2nccc(Nc3cc(Cl)ccc3Cl)n2)cc1` (stereo not drawn) [Example 11, 2-{4-[3-(N,N-Dimethyl)amino-2-hydroxy-propoxy]anilino}-4-(2,5-dichloroanilino)pyrimidine]: the IC50 on CDK4/Cyclin D1 was determined as 0.53 µM.

These data come from patent publication US7176212B2, “2,4-diamino pyrimidine compounds having anti-cell proliferative activity” (AstraZeneca AB, priority 1998, dated 2007).
